Measured values from PMC9220351, “Evaluation of a Conformationally Constrained Indole Carboxamide as a Potential Efflux Pump Inhibitor in Pseudomonas aeruginosa” (Antibiotics, 2022).
Values after ≈ are worked out from the molar mass of the structure shown. Read-outs that look alike come from different tables or passages of the source.

Columns and labels:
[1] = system: P. aeruginosa DA7232 (gyrA-T83I, parC-S80L); test: MIC / levofloxacin potentiation, fluoroquinolone-resistant strain; type: cell-based, Pseudomonas aeruginosa
Source text: (§1) P. aeruginosa ATCC 27853 was obtained from the American Type Culture Collection (ATCC; Manassas, VA, USA). P. aeruginosa multidrug-resistant isolates were obtained from the CDC and FDA Antibiotic Resistance Isolate Bank (Atlanta, GA, USA). P. aeruginosa DA7232 (gyrA-T83I, parC-S80L) was a kind gift from Prof. Dan I. Andersson, Uppsala University, Uppsala, Sweden, and has been characterized elsewhere. P. aeruginosa strains K767 (WT), K1455 (mexAB-oprM overexpressed), K2415 (mexXY-oprM overexpressed), and K3698 (oprM∆) were obtained from Prof. Keith Poole, Queen’s University, Kingston, Ontario, Canada and have been characterized elsewhere. Bacterial cells were grown in cation-adjusted Mueller Hinton (CAMH) media, brain heart infusion broth (BHI), or tryptic soy agar (TSA) plates were all obtained from Becton, Dickinson, and Company (BD; Franklin Lakes, NJ, USA). Aztreonam, ceftazidime, moxifloxacin, levofloxacin, minocycline, tigecycline, chloramphenicol, nitrocefin, and imipenem were purchased from TOKU-E (Bellingham, WA, USA). Azithromycin was purchased from Tokyo Chemical Industry (Portland, OR, USA). Cotrimoxazole was purchased from Toronto Research Chemicals (Toronto, ON, Canada). Doxycycline and polymyxin B were purchased from Sigma-Aldrich (St. Louis, MO, USA). Ethidium bromide (EtBr) and glucose were purchased from VWR (Radnor, PA, USA). MC-04,124 and TXA01182 were synthesized at TAXIS Pharmaceuticals. Carbonyl cyanide 3-chlorophenylhydrazone (CCCP) was purchased from Enzo Life Sciences (Farmingdale, NY, USA). DiOC2 (3) and propidium iodide were obtained from Thermo Fisher Scientific (Waltham, MA, USA).
(§2) MIC assays were performed as described previously.

[2] = system: 300 P. aeruginosa clinical isolates from 63 countries; test: Susceptibility study, IHMA panel; type: cell-based, Pseudomonas aeruginosa; conditions: for Cumulative Susceptibility % Strains at 1: concentration 1 µg/ml; for Cumulative Susceptibility % Strains at 2: concentration 2 µg/ml; for Cumulative Susceptibility % Strains at 4: concentration 4 µg/ml; for Cumulative Susceptibility % Strains at 8: concentration 8 µg/ml; for Cumulative Susceptibility % Strains at 16: concentration 16 µg/ml; for Cumulative Susceptibility % Strains at 32: concentration 32 µg/ml; for Cumulative Susceptibility % Strains at >32: concentration >32 µg/ml
Source text: First, 209 clinical isolates of P. aeruginosa were collected, unbiased of susceptibility, from three US hospitals by Micromyx (now part of Microbiologics; Kalamazoo, MI, USA). IHMA (Monthey, Switzerland) collected 300 P. aeruginosa clinical isolates, also unbiased of susceptibility, from the following 63 countries: Argentina, Australia, Belgium, Brazil, Canada, Chile, Colombia, Costa Rica, Croatia, Czech Republic, Denmark, Dominican Republic, Ecuador, France, Georgia, Germany, Greece, Guatemala, Hong Kong, Hungary, India, Ireland, Israel, Italy, Japan, Jordan, Kazakhstan, Kenya, South Korea, Kuwait, Latvia, Lebanon, Lithuania, Malaysia, Mexico, Morocco, Netherlands, New Zealand, Nigeria, Panama, Philippines, Poland, Portugal, Puerto Rico, Qatar, Romania, Russia, Saudi Arabia, Serbia, Slovenia, South Africa, Spain, Sweden, Switzerland, Taiwan, Thailand, Tunisia, Turkey, Ukraine, United Kingdom, United States, Venezuela, and Vietnam. Isolates came from the following types of infection: genitourinary (urine), gastrointestinal (stomach), gastrointestinal (pancreas), […] (wound), respiratory (sputum), […] (blood), respiratory (bronchoalveolar lavage), […] (burn), respiratory (endotracheal aspirate), bodily fluids (abscess/pus), […] (impetiginous lesions), gastrointestinal (abscess) and respiratory (bronchial brushing). CF patients were not excluded.
as §2

[3] = system: P. aeruginosa ATCC 27853 inner membrane potential; test: DiOC2 (3) membrane polarization assay; type: cell-based, Pseudomonas aeruginosa; conditions: 20 to 0.01 μM
Method: RND efflux pumps couple the influx of protons from the proton gradient across the inner membrane to the efflux of drugs and other molecules. […] The effect of TXA09155 on the proton gradient of P. aeruginosa was assessed with a fluorescence-based 3,3′-diethyloxacarbocyanine iodide [DiOC2 (3)] assay that was developed to measure membrane potential changes in Gram-negative bacteria. DiOC2 (3) is a positively charged fluorescent dye that accumulates within cells in a charge-dependent manner, shifting its fluorescence spectrum from green to red at high concentrations due to concentration-dependent dye stacking. […] Azithromycin and CCCP were used as […] controls, respectively.
P. aeruginosa membrane polarization assays were conducted as described previously using strain ATCC 27853. […] DiOC2 (3) fluorescence was recorded in a microplate reader using 450 nm excitation and 670 nm emission (for red fluorescence). Background correction for each concentration of each compound was obtained from reading the fluorescence of compounds in the resuspension buffer without cells. After background correction, fluorescence was normalized to that of the vehicle (DMSO) only. After a 30 min incubation at 37 °C, DiOC2 (3) fluorescence was recorded using a SpectraMax iD5 spectrophotometer (Molecular Devices, San Jose, CA, USA) following excitation at 450 nm. […]

P. aeruginosa ATCC 27853 [4] = test: Time-kill studies; type: cell-based, Pseudomonas aeruginosa; conditions: highest concentration tested
Method: Time-kill studies were carried out as described previously with the following changes.

CYP2D6 = CYP2D6 (Homo sapiens, UniProt P10635); test: CYP inhibition; type: in vitro ADME; conditions: read-out: CYP Inhibition IC50, CYP 2D6
P. aeruginosa ATCC 27853 [5] = test: MIC / antibiotic potentiation assay, wild-type strain; conditions: for MIC: Pseudomonas aeruginosa
[6] = system: P. aeruginosa K1455 (mexAB-oprM overexpressed); test: microbe, parasite or virus in culture; type: cell-based, Pseudomonas aeruginosa; conditions: Pseudomonas aeruginosa, read-out: MICs K1455 (↑mexAB-oprM)
Source text: as §1, §2

[7] = TXA09155 fixed […], 300 isolates
[8] = n: 300, in combination TXA09155 fixed […]

Sequence of CYP2D6 (P10635 whole entry): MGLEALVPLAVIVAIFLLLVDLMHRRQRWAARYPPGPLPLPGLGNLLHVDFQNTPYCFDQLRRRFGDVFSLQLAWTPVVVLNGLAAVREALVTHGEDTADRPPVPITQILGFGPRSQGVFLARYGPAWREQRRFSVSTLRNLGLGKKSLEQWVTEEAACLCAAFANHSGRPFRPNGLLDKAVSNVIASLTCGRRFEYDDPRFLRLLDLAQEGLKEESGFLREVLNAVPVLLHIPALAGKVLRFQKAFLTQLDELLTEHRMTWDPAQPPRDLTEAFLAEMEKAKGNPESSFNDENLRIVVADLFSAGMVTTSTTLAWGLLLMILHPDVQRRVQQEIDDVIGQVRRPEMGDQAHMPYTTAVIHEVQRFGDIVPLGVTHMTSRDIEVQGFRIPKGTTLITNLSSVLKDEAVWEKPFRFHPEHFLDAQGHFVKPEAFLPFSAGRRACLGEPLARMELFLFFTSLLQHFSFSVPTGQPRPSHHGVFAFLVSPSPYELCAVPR

For `Cl.NC[C@@H]1CN[C@H](CNC(=O)c2cc3ccc(-c4ccc(F)cc4)cc3[nH]2)C1` [TXA09155, N-(((2S,4R)-4-(aminomethyl)pyrrolidine-2-yl)methyl)-6-(4-fluorophenyl)-1H-indole-2-carboxamide hydrochloride salt], the “lowest concentration that potentiated levofloxacin eight-fold” value ([1]; strain DA7232) was 3.13 µg/mL, the “levofloxacin MIC50 in presence of TXA09155” value [2, 7] was 0.06 µg/mL and the “levofloxacin MIC90 in presence of TXA09155” value [2, 7] was 8 µg/mL. For the same compound, the “Cumulative Susceptibility % Strains at 1” value ([2]; n: 300) was 2%, the “Cumulative Susceptibility % Strains at 2” value ([2]; n: 300) was 6% and the “Cumulative Susceptibility % Strains at 4” value ([2]; n: 300) was 7%. The “Cumulative Susceptibility % Strains at 8” value ([2]; n: 300) was 7%, the “Cumulative Susceptibility % Strains at 16” value ([2]; n: 300) was 9% and the “Cumulative Susceptibility % Strains at 32” value ([2]; n: 300) was 13%. For the same compound, the “Cumulative Susceptibility % Strains at >32” value ([2]; n: 300) was 100%, the membrane depolarization [3] was “did not lead to membrane depolarization” and the “effect on growth, compound alone” value (P. aeruginosa ATCC 27853 [4]) was “did not affect the growth”. The IC50 (CYP2D6) was 67.2 µM, the MIC (P. aeruginosa ATCC 27853 [5]; ATCC27853) was 50 µg/mL and the “lowest active concentration for TXA09155” value (P. aeruginosa ATCC 27853 [5]; antibiotic potentiation) was 6.25 µg/mL.

With `C[C@H]1COc2c(N3CCN(C)CC3)c(F)cc3c(=O)c(C(=O)O)cn1c23` [Levofloxacin] the MIC ([1]; Pseudomonas aeruginosa, read-out: levofloxacin MIC in the presence of […] TXA09155) was 1 µg/mL, the “Levofloxacin MIC” value ([1]; levofloxacin alone, strain DA7232) was 256 µg/mL and the MIC [6] was 4 µg/mL (≈ 11.1 µM). For the same compound, the “% R (percent resistant per breakpoints)” value ([2]; LVX ≤1S 2I ≥4R, n: 300) was 22%, the “Cumulative Susceptibility % Strains at 0.5” value ([2]; concentration 0.5 µg/ml, n: 300) was 60% and the “Cumulative Susceptibility % Strains at 1” value ([2]; n: 300) was 69%. For the same compound, the “Cumulative Susceptibility % Strains at 2” value ([2]; n: 300) was 78%, the “Cumulative Susceptibility % Strains at 4” value ([2]; n: 300) was 83% and the “Cumulative Susceptibility % Strains at 8” value ([2]; n: 300) was 84%. For the same compound, the “Cumulative Susceptibility % Strains at 16” value ([2]; n: 300) was 89%, the “Cumulative Susceptibility % Strains at 32” value ([2]; n: 300) was 95% and the “Cumulative Susceptibility % Strains at >32” value ([2]; n: 300) was 100%. For the same compound, the “Cumulative Susceptibility % Strains at 0.06” value ([2]; concentration column 0.06 µg/ml, n: 300) was 1%, the MIC50 [2, 8] was 0.5 µg/mL and the MIC90 [2, 8] was 32 µg/mL. The MIC (P. aeruginosa ATCC 27853 [5]; ATCC27853, read-out: Antibiotic MIC in Presence of TXA09155 at a Concentration of 0) was 1 µg/mL, the MIC (P. aeruginosa ATCC 27853 [5]; ATCC27853, read-out: MICs, Lack of EPI) was 1 µg/mL and the “Antibiotic MIC in Presence of TXA09155 at a Concentration of 3.13” value (P. aeruginosa ATCC 27853 [5]; TXA09155 3.13 μg/mL) was 1 µg/mL. For the same compound, the “Antibiotic MIC in Presence of TXA09155 at a Concentration of 25” value (P. aeruginosa ATCC 27853 [5]; TXA09155 25 μg/mL) was 0.063 µg/mL.
